Measured values taken from patent publication US4721718A, “2-[(imidazo[1,2-a]pyridin-3-ylmethyl)sulfinyl]-1H-benzimidazoles useful in the treatment and prevention of ulcers” (G. D. Searle & Co., priority 1986, dated 1988).
pIC50: −log10 of the molar value.

Molecular target: T1, (H^+ +K^+)-ATPase (Canis lupus familiaris, UniProt P50996)
T1 construct: from tissue; host or cells: gastric glandular mucosa of mongrel dogs (microsomes from the 15-30% sucrose interface, lyophilized)
Assay: Inhibition of (H^+ +K^+)-ATPase from Canine Gastric Mucosa
Format: biochemical, canine (mongrel dogs)
Conditions: for pIC50: canine gastric mucosa microsomes, 30 min preincubation at 37°, pH 6.0, K^+-stimulated minus basal activity
Method: The antisecretory activity of the compounds of this invention illustrated in the Examples was tested by the following method.
Inhibition of ([…] +K^+)-ATPase from Canine Gastric Mucosa
Mongrel dogs weighing 15 to 25 kilograms were fasted for twenty-four hours, with water provided ad libitum. The animals were anesthetized with pentobarbital and the stomachs were removed. Subsequent tissue manipulations and subcellular fractionations were performed at 0° to 4° C. After the stomachs were cut open and rinsed with tap water, the antral and cardiac regions were removed and the remaining tissue was rinsed three times in saline. The glandular mucosa was removed mechanically, chopped finely in a medium containing 10 mM Tris hydrochloride (pH 7.4) and 250 mM sucrose, and homogenized. The homogenate was centrifuged at 20,000×g for twenty minutes and the pellet discarded. The supernatant was then centrifuged at 150,000xg for ninety minutes and the supernatant discarded. The pellet was resuspended in the Tris-HCl/sucrose medium by homogenization. Part (2 ml) of the resultant microsomal suspension was layered onto a step gradient consisting of 9 ml of 15% sucrose above 12 ml of 30% sucrose, each sucrose solution being buffered with 10 mM Tris hydrochloride (pH 7.4) containing 0.01% sodium azide. The microsomes retained at the 15-30% sucrose interface, after centrifugation at 250,000×g for sixty minutes, were used as the source of (H^+ +K^+)-ATPase. Microsomal preparations were lyophilized, a process that assured potassium ion permiability, and stored at -10° until used.
The (H^+ +K^+)-ATPase activity for each test compound was determined, in duplicate, by measuring the release of inorganic phosphate, which was assayed according to the method of J. ChandraRajan and L. Klein., Anal. Biochem., 72. 407-412 (1976). […] At least fifteen minutes later, the optical absorbance at 870 nm (which was proportional to inorganic phosphate concentration up to 100 nmoles per tube, as determined by a standard curve) was obtained. […]

T1 sequence (P50996 whole entry): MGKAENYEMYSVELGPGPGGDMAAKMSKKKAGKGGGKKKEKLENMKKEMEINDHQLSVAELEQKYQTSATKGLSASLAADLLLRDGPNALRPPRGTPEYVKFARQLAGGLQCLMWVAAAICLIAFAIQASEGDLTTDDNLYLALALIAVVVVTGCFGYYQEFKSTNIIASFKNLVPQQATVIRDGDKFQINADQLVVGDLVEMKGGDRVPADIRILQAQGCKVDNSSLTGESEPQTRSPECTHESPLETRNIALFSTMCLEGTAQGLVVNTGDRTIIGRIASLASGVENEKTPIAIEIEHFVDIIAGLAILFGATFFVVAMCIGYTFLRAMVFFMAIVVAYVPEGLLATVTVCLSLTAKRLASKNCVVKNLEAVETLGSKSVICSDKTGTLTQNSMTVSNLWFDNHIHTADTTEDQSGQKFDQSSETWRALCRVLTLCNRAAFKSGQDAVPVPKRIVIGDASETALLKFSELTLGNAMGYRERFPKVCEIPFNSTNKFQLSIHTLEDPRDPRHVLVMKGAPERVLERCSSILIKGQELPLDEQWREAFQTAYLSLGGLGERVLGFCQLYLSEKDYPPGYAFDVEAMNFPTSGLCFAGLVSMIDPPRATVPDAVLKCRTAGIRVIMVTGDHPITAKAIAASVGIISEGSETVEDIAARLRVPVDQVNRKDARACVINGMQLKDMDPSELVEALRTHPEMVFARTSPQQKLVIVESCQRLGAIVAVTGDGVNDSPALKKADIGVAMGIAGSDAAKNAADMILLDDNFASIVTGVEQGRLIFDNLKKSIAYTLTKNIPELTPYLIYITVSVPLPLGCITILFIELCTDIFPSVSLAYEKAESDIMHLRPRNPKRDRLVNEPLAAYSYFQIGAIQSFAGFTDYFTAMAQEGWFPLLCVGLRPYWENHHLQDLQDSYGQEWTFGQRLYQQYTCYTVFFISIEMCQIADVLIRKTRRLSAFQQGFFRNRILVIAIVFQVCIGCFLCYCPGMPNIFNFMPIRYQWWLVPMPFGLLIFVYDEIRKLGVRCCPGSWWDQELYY
T1 sequence (P33704 whole entry partner): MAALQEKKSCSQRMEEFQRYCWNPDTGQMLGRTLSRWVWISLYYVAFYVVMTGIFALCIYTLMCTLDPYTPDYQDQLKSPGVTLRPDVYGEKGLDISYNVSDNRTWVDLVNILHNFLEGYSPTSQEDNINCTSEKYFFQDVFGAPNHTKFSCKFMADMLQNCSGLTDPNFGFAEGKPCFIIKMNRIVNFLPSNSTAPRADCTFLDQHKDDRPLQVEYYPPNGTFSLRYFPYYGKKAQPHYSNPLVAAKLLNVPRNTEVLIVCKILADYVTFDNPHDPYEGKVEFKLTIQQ

Question: How did the pIC50 turn out when `[O-][S+](Cc1cnc2ccccn12)c1nc2ccccc2[nH]1` (stereo not drawn) [Example 2, 2-[(imidazo[1,2-a]pyridin-3-ylmethyl)sulfinyl]-1H-benzimidazole 1/4 hydrate] was run?
Answer: 5.41

Question: For `[O-][S+](Cc1cn2ccccc2n1)c1nc2ccccc2[nH]1` (stereo not drawn) [Example 4, 2-[(imidazo[1,2-a]pyridin-2-ylmethyl)sulfinyl]-1H-benzimidazole], which “inhibition of (H^+ +K^+)-ATPase activity (in words)” value (as shown in Table I) is on record?
Answer: not inhibiting (H^+ +K^+)-ATPase activity

Question: And the pIC50?
Answer: < 4.00
